Consider three compounds from patent publication US20250050042A1, “DRY POWDER FORMULATIONS FILLED IN AN INHALER WITH IMPROVED RESISTANCE TO HUMIDITY” (CHIESI FARMACEUTICI S.P.A., priority 2021, published 2025).

Structures can show the parent of a compound that is named as a salt.

Data set [1] in a line: In-use stability of aerosol performance (FPM drop, NGI) on storage at 30° C. and 75% relative humidity. The class given is physicochemical. As to conditions: in use at 30° C./75%.
Data set [2] in a line: Aerosol performance by Next Generation Impactor (Example 4). It is filed as physicochemical. Also noted: MDD: unit not given beside the values. As to conditions: mean; for FPM: particles equal to or lower than 5.0 micron.
Where [3] appears, read: second block of Table 1 without sub-heading (co-micronization formulation), T = 0 + 1 M.
Where [4] appears, read: second block of Table 1 without sub-heading (co-micronization formulation), T = 0 + 2 M.
The mark [5] stands for this setting: second block of Table 1 without sub-heading (co-micronization formulation), T = 0 + 3 M.
Setting [6] is: simple mixing process formulation, T = 0 + 1 M, mean values.
The mark [7] stands for this setting: simple mixing process formulation, T = 0 + 1.5 M, mean values.
Where [8] appears, read: simple mixing process formulation, T = 0 + 2 M, mean values.
Where [9] appears, read: simple mixing process formulation, T = 0 + 3 M, mean values.
[10] abbreviates: Sample A (coarse lactose batch A).
The mark [11] stands for this setting: Sample A (coarse lactose batch A, tapped density 0.72).
Where [12] appears, read: Sample B (coarse lactose batch B).
Setting [13] is: Sample B (coarse lactose batch B, tapped density 0.69).

As to `CCC(=O)OCC(=O)[C@@]1(OC(=O)CC)[C@@H](C)C[C@H]2[C@@H]3CCC4=CC(=O)C=C[C@]4(C)[C@@]3(Cl)[C@@H](O)C[C@@]21C` [BDP, (8S,9R,10S,11S,13S,14S,16S,17R)-9-chloro-11-hydroxy-10,13,16-trimethyl-3-oxo-17-[2-(propionyloxy)acetyl]-6,7,8,9,10,11,12,13,14,15,16,17-dodecahydro-3H-cyclopenta[a]phenanthren-17-yl propionate], the “FPM drop (%)” value in data set [1] (setting [3]) was −10.4%; in data set [1] (setting [4]) it was −20.3%; in data set [1] (setting [5]), −19.6%; in data set [1] (setting [6]), −22.1%; in data set [1] (setting [7]) it was −30.5%; in data set [1] (setting [8]), −26.3%. Moreover, the “FPM drop (%)” value in data set [1] (setting [9]) is −30.2%. For the same compound, the DD came to 90.4 in data set [2] (setting [10]) and 88.6 in data set [2] (setting [12]). In addition, the FPF in data set [2] (setting [10]) stood at 45%; in data set [2] (setting [12]), 33.4%. The MDD in data set [2] (setting [10]) was determined as 92.4; in data set [2] (setting [12]), 88.5. Also, the FPM in data set [2] (setting [11]) was found to be 41.6; in data set [2] (setting [13]) it was 29.5.
In data set [2] (setting [10]), `COc1ccc(CC(C)NCC(O)c2ccc(O)c(NC=O)c2)cc1` (centres unmarked) [FF, formoterol fumarate dihydrate] registered a DD of 5.6, an FPF of 48.4% and an MDD of 5.6. In data set [2] (setting [11]), this compound yielded an FPM of 2.7. In data set [2] (setting [12]), the DD is listed as 5.4, the FPF turned out to be 36.8% and the MDD is recorded as 5.4. Further, the FPM in data set [2] (setting [13]) was found to be 2.0.
Take `C[N+]1(C)CCC(OC(=O)C(O)(c2ccccc2)C2CCCC2)C1` (centres unmarked) [GB, glycopyrronium bromide]: the “FPM drop (%)” value is on record as −7.8% in data set [1] (setting [3]); −19.1% in data set [1] (setting [4]); −20.7% in data set [1] (setting [5]); −24.5% in data set [1] (setting [6]); −36.5% in data set [1] (setting [7]); −29.5% in data set [1] (setting [8]). In addition, in data set [1] (setting [9]), the “FPM drop (%)” value is recorded as −33.1%. Moreover, the DD worked out at 11.4 in data set [2] (setting [10]) and 11.0 in data set [2] (setting [12]). The values for the FPF in data set [2] (setting [10]) and in data set [2] (setting [12]) were 41.3% and 30.9%, respectively. Also, the MDD is 11.7 in data set [2] (setting [10]) and 11.1 in data set [2] (setting [12]). Also, the figures for the FPM in data set [2] (setting [11]) and in data set [2] (setting [13]) were 4.8 and 3.4, respectively.
